Test results reported in ChEMBL document CHEMBL4507263, “Data for DCP probe BAY-474” (2021).

Tests used:
[1] = biological target: Serine/threonine-protein kinase 3 (Homo sapiens) (UniProt Q13188); test: MST2 (h) Millipore kinase activity assay; conditions: Compound concentration 1.0 uM
[2] = biological target: Mitogen-activated protein kinase 13 (Homo sapiens) (UniProt O15264); test: SAPK4 (h) Millipore kinase activity assay; conditions: Compound concentration 1.0 uM
[3] = biological target: Fibroblast growth factor receptor 2 (Homo sapiens) (UniProt P21802); test: FGFR2 (h) Millipore kinase activity assay; conditions: Compound concentration 1.0 uM
[4] = biological target: Death-associated protein kinase 2 (Homo sapiens) (UniProt Q9UIK4); test: DAPK2 (h) Millipore kinase activity assay; conditions: Compound concentration 1.0 uM
[5] = biological target: Homeodomain-interacting protein kinase 3 (Homo sapiens) (UniProt Q9H422); test: HIPK3 (h) Millipore kinase activity assay; conditions: Compound concentration 1.0 uM
[6] = biological target: Cyclin-dependent kinase 2/cyclin E (Homo sapiens) (UniProt P24864+P24941+O96020); test: CDK2/cyclinE (h) Millipore kinase activity assay; format: protein-complex assay; conditions: Compound concentration 1.0 uM
[7] = biological target: T1, Alpha-1D adrenergic receptor (Homo sapiens) (UniProt P25100); test: Inhibition of Adrenergic alpha1D at 10 µM in the Eurofins-Panlabs radioligand binding assay (Eurofins_assay_203400); conditions: Compound concentration 10.0 uM
T1 sequence (whole entry): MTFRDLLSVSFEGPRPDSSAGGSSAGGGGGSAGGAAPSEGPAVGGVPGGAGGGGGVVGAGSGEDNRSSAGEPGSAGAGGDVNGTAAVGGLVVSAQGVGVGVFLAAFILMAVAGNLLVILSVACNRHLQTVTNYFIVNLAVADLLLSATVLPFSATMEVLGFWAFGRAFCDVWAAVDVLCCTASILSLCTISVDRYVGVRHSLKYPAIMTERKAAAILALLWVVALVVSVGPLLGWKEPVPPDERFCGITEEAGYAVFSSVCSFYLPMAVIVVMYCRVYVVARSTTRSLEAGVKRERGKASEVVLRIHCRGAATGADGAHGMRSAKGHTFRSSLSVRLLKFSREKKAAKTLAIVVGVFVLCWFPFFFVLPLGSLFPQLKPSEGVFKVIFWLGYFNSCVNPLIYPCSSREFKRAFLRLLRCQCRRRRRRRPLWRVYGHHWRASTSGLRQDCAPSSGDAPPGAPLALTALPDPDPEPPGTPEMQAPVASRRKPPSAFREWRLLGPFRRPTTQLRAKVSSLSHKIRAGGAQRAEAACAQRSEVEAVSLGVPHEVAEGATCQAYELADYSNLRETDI

[8] = biological target: Tyrosine-protein kinase ZAP-70 (Homo sapiens) (UniProt P43403); test: ZAP-70 (h) Millipore kinase activity assay; conditions: Compound concentration 1.0 uM
[9] = biological target: Calcium/calmodulin-dependent protein kinase type IV (Homo sapiens) (UniProt Q16566); test: CaMKIV (h) Millipore kinase activity assay; conditions: Compound concentration 1.0 uM
[10] = biological target: Beta-1 adrenergic receptor (Homo sapiens) (UniProt P08588); conditions: Compound concentration 10.0 uM
[11] = biological target: Serine/threonine-protein kinase WNK2 (Homo sapiens) (UniProt Q9Y3S1); test: WNK2 (h) Millipore kinase activity assay; conditions: Compound concentration 1.0 uM
Homo sapiens = organism: Homo sapiens; test: Inhibition of Nicotinic Acetylcholine at compound concentration of 10.0 uM in the Eurofins-Panlabs radioligand binding assay (Eurofins_assay_258590); format: protein-complex assay; conditions: Compound concentration 10.0 uM
[12] = biological target: Cyclin-dependent kinase 5/CDK5 activator 1 (Homo sapiens) (UniProt Q00535+Q15078); test: CDK5/p35 (h) Millipore kinase activity assay; format: protein-complex assay; conditions: Compound concentration 1.0 uM
[13] = biological target: G protein-coupled receptor kinase 6 (Homo sapiens) (UniProt P43250); test: GRK6 (h) Millipore kinase activity assay; conditions: Compound concentration 1.0 uM
[14] = biological target: Calcium/calmodulin-dependent protein kinase type IV (Homo sapiens) (UniProt Q16566); conditions: Compound concentration 1000.0 nM
[15] = tested on: Phosphatidylinositol 4,5-bisphosphate 3-kinase catalytic subunit alpha isoform (Homo sapiens), P42336 [I800L]; conditions: Compound concentration 1000.0 nM
[16] = biological target: Serine/threonine-protein kinase 32A (Homo sapiens) (UniProt Q8WU08); conditions: Compound concentration 1000.0 nM
[17] = biological target: AP2-associated protein kinase 1 (Homo sapiens) (UniProt Q2M2I8); conditions: Compound concentration 1000.0 nM
[18] = biological target: Platelet-derived growth factor receptor alpha (Homo sapiens) (UniProt P16234); conditions: Compound concentration 1000.0 nM
[19] = tested on: Receptor-type tyrosine-protein kinase FLT3 (Homo sapiens), P36888 [UNDEFINED MUTATION]; conditions: Compound concentration 1000.0 nM
[20] = tested on: Proto-oncogene tyrosine-protein kinase receptor Ret (Homo sapiens), P07949 [V804L]; conditions: Compound concentration 1000.0 nM
[21] = biological target: Ribosomal protein S6 kinase alpha-1 (Homo sapiens) (UniProt Q15418); conditions: Compound concentration 1000.0 nM
[22] = biological target: Serine/threonine-protein kinase ULK3 (Homo sapiens) (UniProt Q6PHR2); conditions: Compound concentration 1000.0 nM
[23] = biological target: Serine/threonine-protein kinase haspin (Homo sapiens) (UniProt Q8TF76); conditions: Compound concentration 1000.0 nM
[24] = biological target: MAP kinase-activated protein kinase 5 (Homo sapiens) (UniProt Q8IW41); conditions: Compound concentration 1000.0 nM
[25] = biological target: Phosphatidylinositol 4,5-bisphosphate 3-kinase catalytic subunit beta isoform (Homo sapiens) (UniProt P42338); conditions: Compound concentration 1000.0 nM
[26] = biological target: Serine/threonine-protein kinase pim-2 (Homo sapiens) (UniProt Q9P1W9); conditions: Compound concentration 1000.0 nM
[27] = tested on: Proto-oncogene tyrosine-protein kinase receptor Ret (Homo sapiens), P07949 [M918T]; conditions: Compound concentration 1000.0 nM
[28] = biological target: Mitogen-activated protein kinase kinase kinase 14 (Homo sapiens) (UniProt Q99558); conditions: Compound concentration 1000.0 nM
[29] = biological target: Inhibitor of nuclear factor kappa-B kinase subunit alpha (Homo sapiens) (UniProt O15111); conditions: Compound concentration 1000.0 nM
[30] = biological target: Protein kinase C eta type (Homo sapiens) (UniProt P24723); conditions: Compound concentration 1000.0 nM
[31] = biological target: Cyclin-dependent kinase 2 homolog (Plasmodium falciparum (isolate 3D7)) (UniProt P61075); conditions: Compound concentration 1000.0 nM
[32] = biological target: Casein kinase II subunit alpha (Homo sapiens) (UniProt P68400); conditions: Compound concentration 1000.0 nM

Calcium/calmodulin-dependent protein kinase type IV (Homo sapiens), sequence (Q16566 whole entry, canonical isoform): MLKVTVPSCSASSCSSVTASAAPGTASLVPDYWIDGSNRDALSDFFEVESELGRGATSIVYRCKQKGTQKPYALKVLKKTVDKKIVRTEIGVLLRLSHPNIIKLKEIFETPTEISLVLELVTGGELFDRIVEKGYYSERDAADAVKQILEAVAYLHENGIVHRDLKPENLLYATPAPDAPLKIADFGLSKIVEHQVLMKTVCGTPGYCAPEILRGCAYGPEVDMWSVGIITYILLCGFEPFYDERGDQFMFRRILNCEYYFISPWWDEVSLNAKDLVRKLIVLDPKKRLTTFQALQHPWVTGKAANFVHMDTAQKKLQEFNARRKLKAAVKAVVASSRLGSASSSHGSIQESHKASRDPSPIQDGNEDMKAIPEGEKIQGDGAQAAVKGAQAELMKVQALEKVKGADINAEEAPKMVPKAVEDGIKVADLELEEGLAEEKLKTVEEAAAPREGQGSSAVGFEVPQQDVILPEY
Proto-oncogene tyrosine-protein kinase receptor Ret (Homo sapiens), P07949 [M918T], sequence (P07949 whole entry M918T): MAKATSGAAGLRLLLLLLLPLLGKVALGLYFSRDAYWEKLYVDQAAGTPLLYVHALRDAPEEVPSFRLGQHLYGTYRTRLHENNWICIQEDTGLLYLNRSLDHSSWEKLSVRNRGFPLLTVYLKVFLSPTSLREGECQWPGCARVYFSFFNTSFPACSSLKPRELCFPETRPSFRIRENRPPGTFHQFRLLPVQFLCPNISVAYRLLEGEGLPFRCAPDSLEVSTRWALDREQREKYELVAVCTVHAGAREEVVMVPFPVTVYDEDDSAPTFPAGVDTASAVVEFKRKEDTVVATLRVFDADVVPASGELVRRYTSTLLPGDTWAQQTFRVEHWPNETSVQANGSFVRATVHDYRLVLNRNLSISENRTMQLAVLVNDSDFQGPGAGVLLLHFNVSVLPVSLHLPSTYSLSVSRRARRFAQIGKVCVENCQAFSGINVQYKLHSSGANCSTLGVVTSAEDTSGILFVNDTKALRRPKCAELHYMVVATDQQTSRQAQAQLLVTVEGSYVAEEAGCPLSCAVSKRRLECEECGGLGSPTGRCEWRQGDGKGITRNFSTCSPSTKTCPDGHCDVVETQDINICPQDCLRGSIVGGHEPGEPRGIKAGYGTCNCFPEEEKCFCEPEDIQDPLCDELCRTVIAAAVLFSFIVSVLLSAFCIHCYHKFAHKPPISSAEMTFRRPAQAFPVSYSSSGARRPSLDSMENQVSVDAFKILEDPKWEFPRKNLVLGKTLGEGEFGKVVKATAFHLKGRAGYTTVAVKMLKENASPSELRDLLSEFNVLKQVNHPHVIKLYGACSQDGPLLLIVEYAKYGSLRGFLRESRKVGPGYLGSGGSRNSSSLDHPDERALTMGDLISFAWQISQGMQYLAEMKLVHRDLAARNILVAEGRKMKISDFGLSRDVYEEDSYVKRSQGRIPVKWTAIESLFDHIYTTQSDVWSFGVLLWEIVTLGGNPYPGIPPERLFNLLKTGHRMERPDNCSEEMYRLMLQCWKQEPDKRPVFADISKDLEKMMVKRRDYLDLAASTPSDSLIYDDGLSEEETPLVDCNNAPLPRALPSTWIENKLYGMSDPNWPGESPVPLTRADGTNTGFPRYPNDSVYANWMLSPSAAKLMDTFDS
Serine/threonine-protein kinase WNK2 (Homo sapiens), sequence (Q9Y3S1 whole entry): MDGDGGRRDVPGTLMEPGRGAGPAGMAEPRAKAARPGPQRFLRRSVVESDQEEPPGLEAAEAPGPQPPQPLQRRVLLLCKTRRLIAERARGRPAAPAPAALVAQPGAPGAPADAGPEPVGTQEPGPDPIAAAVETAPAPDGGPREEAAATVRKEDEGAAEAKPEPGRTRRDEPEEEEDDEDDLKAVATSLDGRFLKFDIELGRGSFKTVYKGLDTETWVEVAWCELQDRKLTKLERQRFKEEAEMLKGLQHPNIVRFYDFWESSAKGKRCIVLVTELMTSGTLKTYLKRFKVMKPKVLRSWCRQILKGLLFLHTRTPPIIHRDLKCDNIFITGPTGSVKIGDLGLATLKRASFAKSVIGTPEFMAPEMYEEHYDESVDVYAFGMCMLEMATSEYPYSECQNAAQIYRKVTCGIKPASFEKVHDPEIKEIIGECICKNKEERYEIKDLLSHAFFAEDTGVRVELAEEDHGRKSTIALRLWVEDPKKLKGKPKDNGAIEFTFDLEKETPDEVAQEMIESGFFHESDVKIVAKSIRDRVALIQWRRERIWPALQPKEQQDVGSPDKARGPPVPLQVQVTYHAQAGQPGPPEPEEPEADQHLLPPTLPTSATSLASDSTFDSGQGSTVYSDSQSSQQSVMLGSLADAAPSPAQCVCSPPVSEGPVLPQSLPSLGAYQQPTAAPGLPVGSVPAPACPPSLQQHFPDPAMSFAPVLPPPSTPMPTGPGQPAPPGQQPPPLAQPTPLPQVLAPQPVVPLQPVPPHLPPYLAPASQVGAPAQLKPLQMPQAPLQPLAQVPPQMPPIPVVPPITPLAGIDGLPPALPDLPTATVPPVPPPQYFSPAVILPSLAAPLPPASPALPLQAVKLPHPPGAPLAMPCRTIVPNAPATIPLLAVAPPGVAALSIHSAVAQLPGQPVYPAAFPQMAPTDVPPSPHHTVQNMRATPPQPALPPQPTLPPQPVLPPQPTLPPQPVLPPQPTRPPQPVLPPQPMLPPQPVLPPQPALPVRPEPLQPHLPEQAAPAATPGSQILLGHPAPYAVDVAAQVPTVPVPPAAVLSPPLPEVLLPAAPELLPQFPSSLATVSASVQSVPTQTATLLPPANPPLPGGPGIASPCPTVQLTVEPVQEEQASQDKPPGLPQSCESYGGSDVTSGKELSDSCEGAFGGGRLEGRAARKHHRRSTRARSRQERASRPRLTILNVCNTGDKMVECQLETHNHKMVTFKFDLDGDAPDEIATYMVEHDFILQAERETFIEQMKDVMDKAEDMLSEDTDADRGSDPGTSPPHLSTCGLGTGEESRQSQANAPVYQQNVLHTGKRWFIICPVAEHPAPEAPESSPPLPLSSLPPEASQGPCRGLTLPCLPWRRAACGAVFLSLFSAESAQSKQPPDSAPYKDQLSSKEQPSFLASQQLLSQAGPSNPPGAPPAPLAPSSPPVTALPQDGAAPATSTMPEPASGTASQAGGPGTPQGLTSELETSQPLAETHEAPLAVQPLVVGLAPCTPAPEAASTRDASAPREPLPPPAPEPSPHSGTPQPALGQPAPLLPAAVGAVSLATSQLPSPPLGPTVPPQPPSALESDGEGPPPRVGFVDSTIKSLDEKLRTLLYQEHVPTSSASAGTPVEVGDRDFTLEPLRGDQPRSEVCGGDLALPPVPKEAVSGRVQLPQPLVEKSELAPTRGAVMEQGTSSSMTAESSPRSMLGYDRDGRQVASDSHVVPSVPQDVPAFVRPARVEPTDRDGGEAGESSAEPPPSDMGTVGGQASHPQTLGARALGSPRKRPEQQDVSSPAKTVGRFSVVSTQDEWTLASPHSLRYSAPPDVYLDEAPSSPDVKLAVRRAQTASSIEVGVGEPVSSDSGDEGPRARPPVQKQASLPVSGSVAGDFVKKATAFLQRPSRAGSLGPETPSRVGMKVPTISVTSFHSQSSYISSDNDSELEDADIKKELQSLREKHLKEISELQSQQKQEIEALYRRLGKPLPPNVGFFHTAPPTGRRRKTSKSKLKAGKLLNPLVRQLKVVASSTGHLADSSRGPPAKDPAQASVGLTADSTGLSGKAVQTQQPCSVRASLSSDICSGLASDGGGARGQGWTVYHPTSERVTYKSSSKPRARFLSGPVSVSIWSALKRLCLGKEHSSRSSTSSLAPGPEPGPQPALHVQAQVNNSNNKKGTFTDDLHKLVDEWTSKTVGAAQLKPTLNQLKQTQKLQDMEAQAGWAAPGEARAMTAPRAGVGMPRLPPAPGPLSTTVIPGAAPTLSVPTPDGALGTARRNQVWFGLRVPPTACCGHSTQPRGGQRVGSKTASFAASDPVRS
Phosphatidylinositol 4,5-bisphosphate 3-kinase catalytic subunit beta isoform (Homo sapiens), sequence (P42338 whole entry, looked up, canonical isoform): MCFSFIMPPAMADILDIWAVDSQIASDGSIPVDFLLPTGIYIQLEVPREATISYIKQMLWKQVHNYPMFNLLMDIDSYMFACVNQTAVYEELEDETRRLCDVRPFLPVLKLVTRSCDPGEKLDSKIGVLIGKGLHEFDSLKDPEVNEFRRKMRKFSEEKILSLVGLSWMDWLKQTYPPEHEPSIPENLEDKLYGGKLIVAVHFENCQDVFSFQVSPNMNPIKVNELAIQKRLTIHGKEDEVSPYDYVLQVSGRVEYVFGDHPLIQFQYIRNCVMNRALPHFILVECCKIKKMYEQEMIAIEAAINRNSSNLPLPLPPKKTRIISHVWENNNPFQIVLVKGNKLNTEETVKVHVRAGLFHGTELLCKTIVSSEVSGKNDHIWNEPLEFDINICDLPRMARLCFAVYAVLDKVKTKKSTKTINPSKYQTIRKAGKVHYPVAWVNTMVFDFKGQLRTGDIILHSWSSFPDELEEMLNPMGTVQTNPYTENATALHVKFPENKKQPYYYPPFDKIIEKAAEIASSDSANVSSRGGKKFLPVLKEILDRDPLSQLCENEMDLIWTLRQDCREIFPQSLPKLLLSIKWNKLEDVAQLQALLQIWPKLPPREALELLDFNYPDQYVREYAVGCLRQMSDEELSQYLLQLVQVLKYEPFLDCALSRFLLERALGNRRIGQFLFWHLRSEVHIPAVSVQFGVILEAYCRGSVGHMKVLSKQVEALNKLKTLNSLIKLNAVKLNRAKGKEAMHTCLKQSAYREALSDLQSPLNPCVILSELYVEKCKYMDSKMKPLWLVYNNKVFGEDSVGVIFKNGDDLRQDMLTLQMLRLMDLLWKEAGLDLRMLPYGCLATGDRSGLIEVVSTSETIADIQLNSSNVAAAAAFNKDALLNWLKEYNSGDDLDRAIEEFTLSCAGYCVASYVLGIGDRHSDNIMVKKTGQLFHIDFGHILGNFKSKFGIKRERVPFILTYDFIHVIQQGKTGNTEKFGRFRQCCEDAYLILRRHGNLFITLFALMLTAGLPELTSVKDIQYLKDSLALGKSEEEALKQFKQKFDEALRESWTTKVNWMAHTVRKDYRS
Proto-oncogene tyrosine-protein kinase receptor Ret (Homo sapiens), P07949 [V804L], sequence (P07949 whole entry V804L): as the sequence (P07949 whole entry M918T) above, with V804L, T918M counted along it

CC1=C(C#N)C(c2ccc3[nH]nc(C)c3c2)C(C#N)=C(C)N1 [BAY-474]
inhibition [1]: 7% | inhibition [2]: 10% | inhibition [3]: 17% | inhibition [4]: -4% | inhibition [5]: -4% | inhibition [6]: 9% | inhibition [7]: -9% | inhibition [8]: 12% | inhibition [9]: -1% | inhibition [10]: 0% | inhibition [11]: -8% | inhibition (Homo sapiens): -1% | inhibition [12]: -1% | inhibition [13]: -2%

CC1=C(C#N)[C@@H](c2ccc3[nH]nc(C)c3c2)C(C#N)=C(c2ccc(Cl)cc2)N1 [BAY-827]
residual activity [14]: 31.8% | residual activity [15]: 100% | residual activity [16]: 100% | residual activity [17]: 100% | residual activity [18]: 100% | residual activity [19]: 100% | residual activity [20]: 96.4% | residual activity [21]: 100% | residual activity [22]: 88.3% | residual activity [23]: 100% | residual activity [24]: 100% | residual activity [25]: 100% | residual activity [26]: 100% | residual activity [27]: 97.2% | residual activity [28]: 100% | residual activity [29]: 100% | residual activity [30]: 96.1% | residual activity [31]: 92.5% | residual activity [32]: 100%
